Test results: patent publication US11964978B2, “Modulators of STING (stimulator of interferon genes)” (PFIZER INC., priority 2021, dated 2024)

Key:
[1] = target: R232-STING (Homo sapiens (Human), UniProt Q86WV6, H232R); settings: read-out: R232-STING SPA-IC50 Ki; STING residues 155-341, 100 nM 3H-cGAMP; KI from IC50 with Cheng-Prusoff equation
[2] = test system: phosphorylation of IRF3 in THP-1 cells (STING activation); assay: Phosphorylation of IRF3: THP-1 cell ELISA; format: cell-based; settings: Homo sapiens, 3 hours incubation, read-out: THP-1 CELL P-IRF3 EC50
Description: Phosphorylation of IRF3: THP-1 cell ELISA
STING activation results in recruitment of TBK1 and phosphorylation of IRF3 transcription factor before induction of type I interferons. THP-1 cells (InvivoGen) were grown in RPMI media plus 2 mM L-glutamine, 10% fetal bovine serum, and 0.5% Pen-Strep. 10^4 cells were seeded in 96-well plates and incubated overnight […]. Compounds serial diluted compounds in media (final 0.5% DMSO) were added to the cells and incubated for an additional 3 hours. After incubation, the plates were centrifuged at 2000 rpm for 5 min. The cells were then lysed in 100 μl RIPA buffer and vortexed for 30 minutes at room temperature. 25 μl of lysate was then transferred to clear polystyrene High Bind plates that had been previously coated with mouse anti-human IRF-3 capture antibody (BD Pharmigen), and allowed to incubate at 4° C. for 16 hours. The plates were then washed and incubated with rabbit anti-phospho-IRF3 detection antibody (Cell Signaling Technologies) for 1.5 hours at room temperature. Finally, an HRP-linked secondary antibody (Cell Signaling Technologies) was added for 30 min before the Glo Substrate Reagent (R&D Systems) was used generate the luminescent signal. The signal was measured using a Perkin-Elmer Envision microplate reader. Data were normalized to “% effect” with a positive control STING agonist that was known to maximize the phosphorylated IRF3 signal and the negative control was DMSO.

[3] = test system: THP-1 Lucia ISG cells (IRF-inducible Lucia luciferase reporter); assay: Interferon-β induction: THP-1 ISG reporter cell line; format: cell-based; settings: THP1-Lucia ISG, 24 hours incubation, read-out: THP-1 Lucia ISG Cells IFN-β EC50
Description: Interferon-β Induction: THP-1 ISG Reporter Cell Line
THP-1 Lucia™ ISG cells (InvivoGen) express the secreted luciferase “Lucia” reporter gene under the control of an IRF-inducible composite promotor comprised of five interferon response elements. THP-1 Lucia™ ISG cells were grown in RPMI media plus 2 mM L-glutamine, 10% fetal bovine serum, and 0.5% Pen-Strep. Hygromycin B and Zeocin were present to maintain stable transfection. 10^4 cells were seeded in 96-well plates and incubated overnight 37° C., 5% CO2. 50 μL of serial diluted compounds in media (final 0.5% DMSO) was and incubated for an additional 24 hours. After incubation, the plates were centrifuged at 2000 rpm for 10 min. 50 μl of cell culture supernatant of each well was transferred to a white, opaque 96-well plate. One pouch of QUANTI-Luc™ (InvivoGen) powder was prepared in 25 mL of endotoxin-free water and 100 μL of prepared warm QUANTI-Luc solution were added to each well containing the supernatant. The luminescence signal was measured using a Perkin-Elmer Envision microplate reader. Data were normalized to “% effect” with a positive control STING agonist that was known to maximize the luciferase signal and the negative control DMSO.

Sequence of R232-STING (Q86WV6 155-341 H232R): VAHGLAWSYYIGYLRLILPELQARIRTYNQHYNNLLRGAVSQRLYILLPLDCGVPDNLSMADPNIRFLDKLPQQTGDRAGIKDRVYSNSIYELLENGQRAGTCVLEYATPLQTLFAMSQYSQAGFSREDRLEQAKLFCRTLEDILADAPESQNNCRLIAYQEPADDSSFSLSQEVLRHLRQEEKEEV

Ki [1] | EC50 [2] | EC50 [3] | SMILES
0.0046 µM | 0.73 µM | 0.8 µM | COCCCn1nc(C)cc1-c1cn(C)c(-c2nc(C(N)=O)cc3c2cnn3C2CC2)n1 [Example AIN01, 1-cyclopropyl-4-{4-[1-(3-methoxypropyl)-3-methyl-1H-pyrazol-5-yl]-1-methyl-1H-imidazol-2-yl}-1H-pyrazolo[4,3-c]pyridine-6-carboxamide]
0.151 µM | > 10 µM | > 10 µM | Cn1cc(-c2ccnn2C)nc1-c1nc(C(N)=O)cc2c1cnn2C [AIH04, 1-methyl-4-[1-methyl-4-(1-methyl-1H-pyrazol-5-yl)-1H-imidazol-2-yl]-1H-pyrazolo[4,3-c]pyridine-6-carboxamide]
0.135 µM | > 10 µM | 8.96 µM | Cc1cc(-c2cn(C)c(-c3nc(C(N)=O)cc4c3cnn4C)n2)n(C[C@@H]2CCO2)n1 (single isomer, unassigned) [AIM02]
0.002 µM | 0.31 µM | 0.2 µM | CCn1nc(C)c(O)c1-c1cn(C)c(-c2nc(C(N)=O)cc3c2cnn3C)n1 [AIF07, 4-[4-(1-ethyl-4-hydroxy-3-methyl-1H-pyrazol-5-yl)-1-methyl-1H-imidazol-2-yl]-1-methyl-1H-pyrazolo[4,3-c]pyridine-6-carboxamide]
0.0098 µM | 0.5 µM | 0.54 µM | CCCn1nc(C)cc1-c1cn(C)c(-c2nc(C(N)=O)cc3c2cnn3C)n1 [Example AIF01, 1-methyl-4-[1-methyl-4-(3-methyl-1-propyl-1H-pyrazol-5-yl)-1H-imidazol-2-yl]-1H-pyrazolo[4,3-c]pyridine-6-carboxamide]
0.0933 µM | > 10 µM | > 10 µM | CCn1nccc1-c1cn(C)c(-c2nc(C(N)=O)cc3c2cnn3C)n1 [AIH05, 4-[4-(1-ethyl-1H-pyrazol-5-yl)-1-methyl-1H-imidazol-2-yl]-1-methyl-1H-pyrazolo[4,3-c]pyridine-6-carboxamide]
0.0121 µM | 1.26 µM | 1.17 µM | CCn1nc(C)cc1-c1cn(C)c(-c2nc(C(N)=O)cc3c2cnn3CC)n1 [Example AIC01, 1-ethyl-4-[4-(1-ethyl-3-methyl-1H-pyrazol-5-yl)-1-methyl-1H-imidazol-2-yl]-1H-pyrazolo[4,3-c]pyridine-6-carboxamide]
0.0013 µM | 0.07 µM | 0.03 µM | COCCCn1nc(C)c(O)c1-c1cn(C)c(-c2nc(C(N)=O)cc3c2cnn3C)n1 [AIF10, 4-{4-[4-hydroxy-1-(3-methoxypropyl)-3-methyl-1H-pyrazol-5-yl]-1-methyl-1H-imidazol-2-yl}-1-methyl-1H-pyrazolo[4,3-c]pyridine-6-carboxamide]
> 0.99 µM | – | – | CCn1nc(C)cc1-c1cn(Cc2ccccc2)c(-c2nc(C(N)=O)cc3c2cnn3C)n1 [AIP03]
0.018 µM | 0.8 µM | 0.77 µM | CCn1cc(-c2cc(C)nn2CC)nc1-c1nc(C(N)=O)cc2c1cnn2C [AIA02, 4-[1-ethyl-4-(1-ethyl-3-methyl-1H-pyrazol-5-yl)-1H-imidazol-2-yl]-1-methyl-1H-pyrazolo[4,3-c]pyridine-6-carboxamide]
0.0714 µM | 4.89 µM | 4.53 µM | CCn1nc(C)cc1-c1cn(C(C)C)c(-c2nc(C(N)=O)cc3c2cnn3C)n1 [AIA03, 4-[4-(1-ethyl-3-methyl-1H-pyrazol-5-yl)-1-(propan-2-yl)-1H-imidazol-2-yl]-1-methyl-1H-pyrazolo[4,3-c]pyridine-6-carboxamide]
0.0137 µM | 0.69 µM | 0.74 µM | Cc1cc(-c2cn(C)c(-c3nc(C(N)=O)cc4c3cnn4C)n2)n(CCCCO)n1 [AIE04, 4-{4-[1-(4-hydroxybutyl)-3-methyl-1H-pyrazol-5-yl]-1-methyl-1H-imidazol-2-yl}-1-methyl-1H-pyrazolo[4,3-c]pyridine-6-carboxamide]
0.0875 µM | 6.42 µM | 6.31 µM | CCc1nc(C)cn1-c1cn(C)c(-c2nc(C(N)=O)cc3c2cnn3C)n1 [Example AID01, 4-(2-ethyl-1′,4-dimethyl-1′H-[1,4′-biimidazol]-2′-yl)-1-methyl-1H-pyrazolo[4,3-c]pyridine-6-carboxamide]
0.113 µM | > 10 µM | > 10 µM | CCn1nc(C)cc1-c1cn(C)c(-c2nc(C(N)=O)cc3c2ccn3C)n1 [AIC02, 4-[4-(1-ethyl-3-methyl-1H-pyrazol-5-yl)-1-methyl-1H-imidazol-2-yl]-1-methyl-1H-pyrrolo[3,2-c]pyridine-6-carboxamide]
0.0029 µM | 0.25 µM | 0.16 µM | CCn1cc(-c2c(O)c(C)nn2CC)nc1-c1nc(C(N)=O)cc2c1cnn2C [AIF13, 4-[1-ethyl-4-(1-ethyl-4-hydroxy-3-methyl-1H-pyrazol-5-yl)-1H-imidazol-2-yl]-1-methyl-1H-pyrazolo[4,3-c]pyridine-6-carboxamide]
0.0431 µM | > 10 µM | > 10 µM | Cc1cc(-c2cn(C)c(-c3nc(C(N)=O)cc4c3cnn4C)n2)n(CC#N)n1 [Example AIP01, 4-{4-[1-(cyanomethyl)-3-methyl-1H-pyrazol-5-yl]-1-methyl-1H-imidazol-2-yl}-1-methyl-1H-pyrazolo[4,3-c]pyridine-6-carboxamide]
0.0128 µM | 0.68 µM | 0.85 µM | COCCCn1nc(C)cc1-c1cn(C)c(-c2nc(C(N)=O)cc3c2cnn3CF)n1 [AIN03, 1-(fluoromethyl)-4-{4-[1-(3-methoxypropyl)-3-methyl-1H-pyrazol-5-yl]-1-methyl-1H-imidazol-2-yl}-1H-pyrazolo[4,3-c]pyridine-6-carboxamide]
0.0818 µM | > 10 µM | > 10 µM | CCn1nc(C)cc1-c1cn(C)c(-c2nc(C(N)=O)nc3c2cnn3C)n1 [Example AIG01, 4-[4-(1-ethyl-3-methyl-1H-pyrazol-5-yl)-1-methyl-1H-imidazol-2-yl]-1-methyl-1H-pyrazolo[3,4-d]pyrimidine-6-carboxamide]
0.352 µM | – | – | CCc1nn(C)cc1-c1cn(C)c(-c2nc(C(N)=O)cc3c2cnn3C)n1 [AIH01, 4-[4-(3-ethyl-1-methyl-1H-pyrazol-4-yl)-1-methyl-1H-imidazol-2-yl]-1-methyl-1H-pyrazolo[4,3-c]pyridine-6-carboxamide]
0.257 µM | – | – | CCn1nc(C)cc1-c1cn(C2CC2)c(-c2nc(C(N)=O)cc3c2cnn3C)n1 [Example AIB01, 4-[1-cyclopropyl-4-(1-ethyl-3-methyl-1H-pyrazol-5-yl)-1H-imidazol-2-yl]-1-methyl-1H-pyrazolo[4,3-c]pyridine-6-carboxamide]
> 0.99 µM | – | – | Cc1cc(-c2cn(C)c(-c3nc(C(N)=O)cc4c3cnn4C)n2)n(CCC(F)(F)F)n1 [AIF05, 1-methyl-4-{1-methyl-4-[3-methyl-1-(3,3,3-trifluoropropyl)-1H-pyrazol-5-yl]-1H-imidazol-2-yl}-1H-pyrazolo[4,3-c]pyridine-6-carboxamide]
> 0.99 µM | – | – | CCn1nc(C)c(Cl)c1-c1cn(C)c(-c2nc(C(N)=O)cc3c2cnn3C)n1 [AIF08, 4-[4-(4-chloro-1-ethyl-3-methyl-1H-pyrazol-5-yl)-1-methyl-1H-imidazol-2-yl]-1-methyl-1H-pyrazolo[4,3-c]pyridine-6-carboxamide]
> 0.99 µM | – | – | CCn1nc(C(F)(F)F)cc1-c1cn(C)c(-c2nc(C(N)=O)cc3c2cnn3C)n1 [AIF09, 4-{4-[1-ethyl-3-(trifluoromethyl)-1H-pyrazol-5-yl]-1-methyl-1H-imidazol-2-yl}-1-methyl-1H-pyrazolo[4,3-c]pyridine-6-carboxamide]

SMILES | Ki [1] | EC50 [2] | EC50 [3]
Cc1cc(-c2cn(C)c(-c3nc(C(N)=O)cc4c3cnn4C)n2)n(CCCO)n1 [Example AIE01, 4-{4-[1-(3-hydroxypropyl)-3-methyl-1H-pyrazol-5-yl]-1-methyl-1H-imidazol-2-yl}-1-methyl-1H-pyrazolo[4,3-c]pyridine-6-carboxamide] | 0.0036 µM | 0.2 µM | 0.22 µM
